Laboratory results published in patent US20260274799A1, “HETEROCYCLIC DERIVATIVES, COMPOSITIONS AND USES THEREOF” (DANATLAS PHARMACEUTICALS CO., LTD., priority 2023, published 2026).

Molecular target: T1, PPARγ-LBD (UniProt ID: P37231-2) (Homo sapiens, UniProt P37231)
T1 construct: PPARγ-LBD (UniProt ID: P37231-2) was expressed and purified in insect system; made in house
T1 sequence (P37231 238-503 limits assumed): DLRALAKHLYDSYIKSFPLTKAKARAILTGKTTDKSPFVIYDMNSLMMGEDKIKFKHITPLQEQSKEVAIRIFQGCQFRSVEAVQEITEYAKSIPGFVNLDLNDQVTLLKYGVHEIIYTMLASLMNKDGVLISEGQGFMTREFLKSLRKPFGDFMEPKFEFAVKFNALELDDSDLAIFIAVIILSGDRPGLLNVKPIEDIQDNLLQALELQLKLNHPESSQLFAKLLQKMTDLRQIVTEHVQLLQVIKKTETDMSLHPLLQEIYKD
Assay: PPARγ-SMRT recruitment assay (TR-FRET)
Assay type: biochemical
Conditions: for Emax: 1 h, max value of % Activation, high control 10 uM control compound, low control 1% DMSO, read-out: Top %; for EC50: TR-FRET, SMRT peptide recruitment to PPARγ-LBD, 120 min pre-incubation
Protocol: PPARγ TR-FRET assay was initiated to evaluate potential activatory effect of the compounds of the present disclosure for SMRT recruitment to PPARγ protein. PPARγ-LBD (UniProt ID: P37231-2) was expressed and purified in insect system and stored at −80° C. in aliquots. Biotinylated SMRT peptide was synthesized (Biotin-[…]). 5 μL protein solution mixture consisting of 10 nM PPARγ-LBD and 2 nM Anti-His Eu (Cisbio, 61HISKLA) in assay buffer (25 mM HEPES pH7.4, 25 mM KCl, 1 mM EDTA, 0.01% BSA, 0.01% Tween-20, 1 mM TCEP) was added to 384-well plates containing duplicate 10-point dose response titration of compounds in 5 μL assay buffer (1% f.c. DMSO(v/v)). After 120 min pre-incubation at room temperature, 5 μL peptide solution mixture consisting of 50 nM Biotin-SMRT peptide and 25 nM Streptavidin-XL665 (Cisbio, 610SAXLA) added to plates. Plates were incubated for 60 min. and read in CLARIOstar Plus plate reader with Ex/Em 620 nm/[…]. Average TR-FRET ratio of high control (Wells with 10 uM control compound) was calculated as High Control (HC). Average TR-FRET ratio of low control (Wells with 1% DMSO) was calculated as Low control (LC). For one compound, top % is the max value of % Activation.
EC50 values were determined by fitting the data to the standard 4 parameters with Hill Slope using GraphPad Prism software. […] ND: No Determine.

Structure (SMILES) | Emax [%] | EC50 [nM]
CC(C)(O)C#Cc1c(F)cc2[nH]c(-c3cc(C#N)ccc3S(C)(=O)=O)cc(=O)c2c1F [Example 1, 3-(5,7-Difluoro-6-(3-hydroxy-3-methylbut-1-yn-1-yl)-4-oxo-1,4-dihydroquinolin-2-yl)-4-(methylsulfonyl)benzonitrile] | 495 | < 100
C#Cc1c(F)cc2[nH]c(-c3cc(C#N)ccc3S(C)(=O)=O)cc(=O)c2c1F [Example 2, 3-(6-Ethynyl-5,7-difluoro-4-oxo-1,4-dihydroquinolin-2-yl)-4-(methylsulfonyl)benzonitrile] | 311 | < 100
CS(=O)(=O)c1ccc(C#N)cc1-c1cc(=O)c2c(F)c(C#CCO)c(F)cc2[nH]1 [Example 3, 3-(5,7-Difluoro-6-(3-hydroxyprop-1-yn-1-yl)-4-oxo-1,4-dihydroquinolin-2-yl)-4-(methylsulfonyl)benzonitrile] | 300 | < 100
C[C@@H](O)C#Cc1c(F)cc2[nH]c(-c3cc(C#N)ccc3S(C)(=O)=O)cc(=O)c2c1F [Example 4, (R)-3-(5,7-Difluoro-6-(3-hydroxybut-1-yn-1-yl)-4-oxo-1,4-dihydroquinolin-2-yl)-4-(methylsulfonyl)benzonitrile] | 200 | < 100
C[C@H](O)C#Cc1c(F)cc2[nH]c(-c3cc(C#N)ccc3S(C)(=O)=O)cc(=O)c2c1F [Example 5, (S)-3-(5,7-Difluoro-6-(3-hydroxybut-1-yn-1-yl)-4-oxo-1,4-dihydroquinolin-2-yl)-4-(methylsulfonyl)benzonitrile] | 367 | < 100
CS(=O)(=O)c1ccc(C#N)cc1-c1cc(=O)c2c(F)c(C#CCCO)c(F)cc2[nH]1 [Example 6, 3-(5,7-Difluoro-6-(4-hydroxybut-1-yn-1-yl)-4-oxo-1,4-dihydroquinolin-2-yl)-4-(methylsulfonyl)benzonitrile] | 266 | < 100
CS(=O)(=O)c1ccc(C#N)cc1-c1cc(=O)c2c(F)c(C#CC3(O)COC3)c(F)cc2[nH]1 [Example 7, 3-(5,7-Difluoro-6-((3-hydroxyoxetan-3-yl)ethynyl)-4-oxo-1,4-dihydroquinolin-2-yl)-4-(methylsulfonyl)benzonitrile] | 207 | < 100
CC(C)(N)C#Cc1c(F)cc2[nH]c(-c3cc(C#N)ccc3S(C)(=O)=O)cc(=O)c2c1F [Example 8, 3-(6-(3-Amino-3-methylbut-1-yn-1-yl)-5,7-difluoro-4-oxo-1,4-dihydroquinolin-2-yl)-4-(methylsulfonyl)benzonitrile] | 208 | < 100
CS(=O)(=O)c1ccc(C#N)cc1-c1cc(=O)c2c(F)c(C#CC3CC3)c(F)cc2[nH]1 [Example 9, 3-(6-(Cyclopropylethynyl)-5,7-difluoro-4-oxo-1,4-dihydroquinolin-2-yl)-4-(methylsulfonyl)benzonitrile] | 359 | < 100
CC(C)(C)C#Cc1c(F)cc2[nH]c(-c3cc(C#N)ccc3S(C)(=O)=O)cc(=O)c2c1F [Example 10, 3-(6-(3,3-Dimethylbut-1-yn-1-yl)-5,7-difluoro-4-oxo-1,4-dihydroquinolin-2-yl)-4-(methylsulfonyl)benzonitrile] | – | < 100
CS(=O)(=O)c1ccc(C#N)cc1-c1cc(=O)c2c(F)c(C#Cc3ccccc3)c(F)cc2[nH]1 [Example 11, 3-(5,7-Difluoro-4-oxo-6-(phenylethynyl)-1,4-dihydroquinolin-2-yl)-4-(methylsulfonyl)benzonitrile] | 435 | < 100
Cn1cc(C#Cc2c(F)cc3[nH]c(-c4cc(C#N)ccc4S(C)(=O)=O)cc(=O)c3c2F)cn1 [Example 12, 3-(5,7-Difluoro-6-((1-methyl-1H-pyrazol-4-yl)ethynyl)-4-oxo-1,4-dihydroquinolin-2-yl)-4-(methylsulfonyl)benzonitrile] | 181 | < 100
CS(=O)(=O)c1ccc(C#N)cc1-c1cc(=O)c2c(F)c(C3CC3)c(F)cc2[nH]1 [Example 13, 3-(6-Cyclopropyl-5,7-difluoro-4-oxo-1,4-dihydroquinolin-2-yl)-4-(methylsulfonyl)benzonitrile] | 187 | < 100
Cc1ccccc1C#Cc1c(F)cc2[nH]c(-c3cc(C#N)ccc3S(C)(=O)=O)cc(=O)c2c1F [Example 17, 3-(5,7-Difluoro-4-oxo-6-(o-tolylethynyl)-1,4-dihydroquinolin-2-yl)-4-(methylsulfonyl)benzonitrile] | 613 | < 100
CS(=O)(=O)c1ccc(C#N)cc1-c1cc(=O)c2c(F)c(OCc3ccccc3)c(F)cc2[nH]1 [Example 18, 3-(6-(Benzyloxy)-5,7-difluoro-4-oxo-1,4-dihydroquinolin-2-yl)-4-(methylsulfonyl)benzonitrile] | – | < 100
CC#Cc1c(F)cc2[nH]c(-c3cc(C#N)ccc3S(C)(=O)=O)cc(=O)c2c1F [Example 19, 3-(5,7-Difluoro-4-oxo-6-(prop-1-yn-1-yl)-1,4-dihydroquinolin-2-yl)-4-(methylsulfonyl)benzonitrile] | 208 | < 100
CCC#Cc1c(F)cc2[nH]c(-c3cc(C#N)ccc3S(C)(=O)=O)cc(=O)c2c1F [Example 20, 3-(6-(But-1-yn-1-yl)-5,7-difluoro-4-oxo-1,4-dihydroquinolin-2-yl)-4-(methylsulfonyl)benzonitrile] | 210 | < 100
CC(C)C#Cc1c(F)cc2[nH]c(-c3cc(C#N)ccc3S(C)(=O)=O)cc(=O)c2c1F [Example 21, 3-(5,7-Difluoro-6-(3-methylbut-1-yn-1-yl)-4-oxo-1,4-dihydroquinolin-2-yl)-4-(methylsulfonyl)benzonitrile] | – | < 100
CS(=O)(=O)c1ccc(C#N)cc1-c1cc(=O)c2c(F)c(C#Cc3ccncc3)c(F)cc2[nH]1 [Example 22, 3-(5,7-Difluoro-4-oxo-6-(pyridin-4-ylethynyl)-1,4-dihydroquinolin-2-yl)-4-(methylsulfonyl)benzonitrile] | – | < 100
CC(C)(F)C#Cc1c(F)cc2[nH]c(-c3cc(C#N)ccc3S(C)(=O)=O)cc(=O)c2c1F [Example 23, 3-(5,7-Difluoro-6-(3-fluoro-3-methylbut-1-yn-1-yl)-4-oxo-1,4-dihydroquinolin-2-yl)-4-(methylsulfonyl)benzonitrile] | 316 | < 100
CS(=O)(=O)c1ccc(C#N)cc1-c1cc(=O)c2c(F)c(C#CC3COC3)c(F)cc2[nH]1 [Example 24, 3-(5,7-Difluoro-6-(oxetan-3-ylethynyl)-4-oxo-1,4-dihydroquinolin-2-yl)-4-(methylsulfonyl)benzonitrile] | 197 | < 100
CS(=O)(=O)c1ccc(C#N)cc1-c1cc(=O)c2c(F)c(CCC3CCOCC3)c(F)cc2[nH]1 [Example 25, 3-(5,7-Difluoro-4-oxo-6-(2-(tetrahydro-2H-pyran-4-yl)ethyl)-1,4-dihydroquinolin-2-yl)-4-(methylsulfonyl)benzonitrile] | – | < 100
CS(=O)(=O)c1ccc(C#N)cc1-c1cc(=O)c2c(F)c(OCC3CCC3)c(F)cc2[nH]1 [Example 26, 3-(6-(Cyclobutylmethoxy)-5,7-difluoro-4-oxo-1,4-dihydroquinolin-2-yl)-4-(methylsulfonyl)benzonitrile] | – | < 100
Cc1cc(C#Cc2c(F)cc3[nH]c(-c4cc(C#N)ccc4S(C)(=O)=O)cc(=O)c3c2F)ccn1 [Example 27, 3-(5,7-Difluoro-6-((2-methylpyridin-4-yl)ethynyl)-4-oxo-1,4-dihydroquinolin-2-yl)-4-(methylsulfonyl)benzonitrile] | – | < 100
Cc1cnccc1C#Cc1c(F)cc2[nH]c(-c3cc(C#N)ccc3S(C)(=O)=O)cc(=O)c2c1F [Example 28, 3-(5,7-Difluoro-6-((3-methylpyridin-4-yl)ethynyl)-4-oxo-1,4-dihydroquinolin-2-yl)-4-(methylsulfonyl)benzonitrile] | 293 | < 100
Cc1ncccc1C#Cc1c(F)cc2[nH]c(-c3cc(C#N)ccc3S(C)(=O)=O)cc(=O)c2c1F [Example 29, 3-(5,7-Difluoro-6-((2-methylpyridin-3-yl)ethynyl)-4-oxo-1,4-dihydroquinolin-2-yl)-4-(methylsulfonyl)benzonitrile] | 357 | < 100
COc1ccccc1C#Cc1c(F)cc2[nH]c(-c3cc(C#N)ccc3S(C)(=O)=O)cc(=O)c2c1F [Example 30, 3-(5,7-Difluoro-6-((2-methoxyphenyl)ethynyl)-4-oxo-1,4-dihydroquinolin-2-yl)-4-(methylsulfonyl)benzonitrile] | 283 | < 100
